Test results as given in patent US20090186874A1, “Carboxamide derivative and use thereof” (priority 2004, published 2009).
Structures can show the parent of a compound that is named as a salt.

Biological target: T1, substance P receptor (Homo sapiens, UniProt P25103)
T1 construct: The receptor was prepared from human lymphoblast cells (IM-9); endogenous in cells; host or cells: IM-9 human lymphoblast cells (membrane preparation)
Assay: Radioligand receptor binding inhibitory activity (125I-BHSP binding to receptor from IM-9 cells)
Conditions: receptor from human lymphoblast cells (IM-9); radioligand 125I-BHSP; 25° C., 30 minutes
Procedure: Radioligand receptor binding inhibitory activity (Binding inhibitory activity using receptor from human lymphoblast cells (IM-9))
The residue was washed twice with 30 mL of the above-mentioned buffer, which was then preserved frozen (−80° C.) as a specimen of the receptor.
The specimen was suspended in a reaction buffer (50 mM Tri-HCl buffer (pH 7.4), 0.02% bovine serum albumin, 1 mM phenylmethylsulfonyl fluoride, 2 μg/mL chymostatin, 40 μg/mL bacitracin and 3 mM manganese chloride) to have protein in the concentration of 0.5 mg/mL of protein and 100 μl portion of the suspension was used in the reaction. […] The amount of nonspecific binding was determined by adding substance P at a final concentration of 2×10^−6 M.
After the reaction, using a cell harvester (290 PHD, Cambridge Technology, Inc, U.S.A.), filtration was carried out through a glass filter (GF/B, Whatman, U.S.A.), which was immersed in 0.1% polyethyleneimine for 24 hours and dried. After washing three times with 250 μL of 50 mM Tris-HCl buffer (pH 7.4) containing 0.02% bovine serum albumin, the radioactivity remaining on the filter was determined with a gamma counter.

T1 sequence (P25103 whole entry): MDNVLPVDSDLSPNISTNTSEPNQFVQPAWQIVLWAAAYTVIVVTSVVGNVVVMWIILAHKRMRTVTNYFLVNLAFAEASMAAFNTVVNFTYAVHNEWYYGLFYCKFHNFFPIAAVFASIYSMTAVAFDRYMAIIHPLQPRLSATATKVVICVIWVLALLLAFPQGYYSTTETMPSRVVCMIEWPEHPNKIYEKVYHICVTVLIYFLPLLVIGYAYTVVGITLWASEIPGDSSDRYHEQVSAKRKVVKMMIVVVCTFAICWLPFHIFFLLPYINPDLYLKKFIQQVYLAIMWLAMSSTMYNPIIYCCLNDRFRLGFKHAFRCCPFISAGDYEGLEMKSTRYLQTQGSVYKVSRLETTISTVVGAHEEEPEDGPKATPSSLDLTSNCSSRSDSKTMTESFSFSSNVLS

| Compound | IC50 |
| --- | --- |
| Cc1cc(F)ccc1[C@@H]1CNCC[C@H]1C(=O)N(C)Cc1cc(C(F)(F)F)cc(C(F)(F)F)c1 (relative stereo) [Example 12, (3R*,4R*)-N-[3,5-bis(trifluoromethyl)benzyl]-3-(4-fluoro-2-methylphenyl)-N-methylpiperidine-4-carboxamide hydrochloride] | 0.051 nM |
| COCC(=O)N1CC[C@@H](C(=O)N(C)Cc2cc(C(F)(F)F)cc(C(F)(F)F)c2)[C@H](c2ccc(F)cc2C)C1 (relative stereo) [Example 40, (3R*,4R*)-N-[3,5-bis(trifluoromethyl)benzyl]-3-(4-fluoro-2-methylphenyl)-1-(methoxyacetyl)-N-methylpiperidine-4-carboxamide] | 0.058 nM |
| CCN(CC)CCC(=O)N1CC[C@@H](C(=O)N(C)Cc2cc(C(F)(F)F)cc(C(F)(F)F)c2)[C@H](c2ccc(F)cc2C)C1 (relative stereo) [Example 41, (3R*,4R*)-N-[3,5-bis(trifluoromethyl)benzyl]-1-(N,N-diethyl-β-alanyl)-3-(4-fluoro-2-methylphenyl)-N-methylpiperidine-4-carboxamide Hydrochloride] | 0.025 nM |
| Cc1cc(F)ccc1[C@@H]1CN(C(=O)Cn2cnnn2)CC[C@H]1C(=O)N(C)Cc1cc(C(F)(F)F)cc(C(F)(F)F)c1 (relative stereo) [Example 42, (3R*,4R*)-N-[3,5-bis(trifluoromethyl)benzyl]-3-(4-fluoro-2-methylphenyl)-N-methyl-1-(1H-tetrazol-1-ylacetyl)piperidine-4-carboxamide] | 0.022 nM |
| Cc1cc(F)ccc1[C@@H]1CN(C(=O)CC2NC(=O)NC2=O)CC[C@H]1C(=O)N(C)Cc1cc(C(F)(F)F)cc(C(F)(F)F)c1 (relative stereo) [Example 43, (3R*,4R*)-N-[3,5-bis(trifluoromethyl)benzyl]-1-[(2,5-dioxoimidazolidin-4-yl)acetyl]-3-(4-fluoro-2-methylphenyl)-N-methylpiperidine-4-carboxamide] | 0.064 nM |
| Cc1cc(F)ccc1[C@@H]1CN(Cc2n[nH]c(=O)[nH]2)CC[C@H]1C(=O)N(C)Cc1cc(C(F)(F)F)cc(C(F)(F)F)c1 (relative stereo) [Example 54, (3R*,4R*)-N-[3,5-bis(trifluoromethyl)benzyl]-3-(4-fluoro-2-methylphenyl)-N-methyl-1-[(5-oxo-4,5-dihydro-1H-1,2,4-triazol-3-yl)methyl]piperidine-4-carboxamide] | 0.036 nM |
| Cc1cc(F)ccc1[C@@H]1CN(C(N)=O)CC[C@H]1C(=O)N(C)Cc1cc(C(F)(F)F)cc(C(F)(F)F)c1 (relative stereo) [Example 75, (3R*,4R*)-N^4-[3,5-bis(trifluoromethyl)benzyl]-3-(4-fluoro-2-methylphenyl)-N^4-methylpiperidine-1,4-dicarboxamide] | 0.035 nM |

Results, then the compound that gave them:

| IC50 | Compound |
| --- | --- |
| 0.049 nM | CC(=O)N1CCC(C(=O)N2CC[C@H](C(=O)N(C)Cc3cc(C(F)(F)F)cc(C(F)(F)F)c3)[C@H](c3ccccc3)C2)CC1 (relative stereo) [Example 30, (3R*,4S*)-1-[(1-acetylpiperidin-4-yl)carbonyl]-N-[3,5-bis(trifluoromethyl)benzyl]-N-methyl-3-phenylpiperidine-4-carboxamide] |
| 0.098 nM | CC(=O)N1CCC(C(=O)N2CC[C@@H](C(=O)N(C)Cc3cc(C(F)(F)F)cc(C(F)(F)F)c3)[C@H](c3ccccc3)C2)CC1 (relative stereo) [Example 35, (3R*,4R*)-1-[(1-acetylpiperidin-4-yl)carbonyl]-N-[3,5-bis(trifluoromethyl)benzyl]-N-methyl-3-phenylpiperidine-4-carboxamide] |
| 0.019 nM | CC(=O)N1CCC(C(=O)N2CC[C@H](C(=O)N(C)Cc3cc(C(F)(F)F)cc(C(F)(F)F)c3)[C@H](c3ccc(F)cc3)C2)CC1 (relative stereo) [Example 44, (3R*,4S*)-1-[(1-acetylpiperidin-4-yl)carbonyl]-N-[3,5-bis(trifluoromethyl)benzyl]-3-(4-fluorophenyl)-N-methylpiperidine-4-carboxamide] |
| 0.052 nM | CC(=O)N1CCC(C(=O)N2CC[C@@H](C(=O)N(C)Cc3cc(C(F)(F)F)cc(C(F)(F)F)c3)[C@H](c3ccc(F)cc3)C2)CC1 (relative stereo) [Example 45, (3R*,4R*)-1-[(1-acetylpiperidin-4-yl)carbonyl]-N-[3,5-bis(trifluoromethyl)benzyl]-3-(4-fluorophenyl)-N-methylpiperidine-4-carboxamide] |
| 0.047 nM | CC(=O)N1CCC(C(=O)N2CC[C@@H](C(=O)N(C)Cc3cc(C(F)(F)F)cc(C(F)(F)F)c3)[C@H](c3ccc(F)cc3C)C2)CC1 (relative stereo) [Example 46, (3R*,4R*)-1-[(1-acetylpiperidin-4-yl)carbonyl]-N-[3,5-bis(trifluoromethyl)benzyl]-3-(4-fluoro-2-methylphenyl)-N-methylpiperidine-4-carboxamide] |
| 0.052 nM | Cc1cc(F)ccc1[C@@H]1CN(C(=O)C(N)=O)CC[C@H]1C(=O)N(C)Cc1cc(C(F)(F)F)cc(C(F)(F)F)c1 (relative stereo) [Example 73, (3R*,4R*)-1-[amino(oxo)acetyl]-N-[3,5-bis(trifluoromethyl)benzyl]-3-(4-fluoro-2-methylphenyl)-N-methylpiperidine-4-carboxamide] |
| 0.043 nM | CC(=O)NCC(=O)N1CC[C@@H](C(=O)N(C)Cc2cc(C(F)(F)F)cc(C(F)(F)F)c2)[C@H](c2ccc(F)cc2C)C1 (relative stereo) [Example 77, (3R*,4R*)-1-(N-acetylglycyl)-N-[3,5-bis(trifluoromethyl)benzyl]-3-(4-fluoro-2-methylphenyl)-N-methylpiperidine-4-carboxamide] |
